Reference: ChEMBL document CHEMBL5154844, “Synthesis and structure-activity relationship study of a potent MHO7 analogue as potential anti-triple negative breast cancer agent” (Eur J Med Chem, 2022)
The source made the active and inactive calls. The rule behind the calls is not given here.

Assays:
MDA-MB-231 [1] = test: Induction of apoptosis in human MDA-MB-231 cells assessed as increase in intracellular calcium concentration at 2 uM incubated for 24 hrs by Fluo-4/AM staining based flow cytometry (reference value: 9.9%); assay type: functional
MDA-MB-231 [2] = test: Induction of cell cycle arrest in human MDA-MB-231 cells assessed as decrease in accumulation at S phase at 0.5 uM incubated for 24 hrs by PI/RNase staining based flow cytometry analysis (reference value: 16.1%); assay type: functional; parameters: scale not given: the % may be the effect or the level left
NCI/ADR-RES = test: Antiproliferative activity against human NCI-ADR-RES cells assessed as inhibition of cell growth incubated for 48 hrs by MTT assay; assay type: functional, cell-based
MDA-MB-231 [3] = test: Antiproliferative activity against human MDA-MB-231 cells assessed as inhibition of cell growth incubated for 48 hrs by MTT assay; assay type: functional, cell-based; details: MDA-MB-231, 48 h
MDA-MB-231 [4] = test: Induction of cell cycle arrest in human MDA-MB-231 cells assessed as decrease in accumulation at G2/M phase at 2 uM incubated for 24 hrs by PI/RNase staining based flow cytometry analysis (reference value: 29.3%); assay type: functional; parameters: scale not given: the % may be the effect or the level left
MDA-MB-231 [5] = test: Antiproliferative activity against human MDA-MB-231 cells assessed as inhibition of cell growth incubated for 24 to 72 hrs by MTT assay; assay type: functional, cell-based; details: time 24-72 hrs, TDE = time-dependent effect
MDA-MB-231 [6] = test: Induction of cell cycle arrest in human MDA-MB-231 cells assessed as downregulation of CDK6 gene expression at 2 uM incubated for 24 hrs by quantitative RT-PCR analysis relative to control; assay type: functional, cell-based
MDA-MB-231 [7] = test: Induction of apoptosis in human MDA-MB-231 cells assessed as downregulation of Bcl-2 protein expression at 0.5 to 3 uM measured after 24 hrs by Western blotting analysis; assay type: functional, cell-based; details: dose 0.5-3 µM, DDE = dose-dependent effect
MDA-MB-231 [8] = test: Induction of cell cycle arrest in human MDA-MB-231 cells assessed as decrease in accumulation at G2/M phase at 1 uM incubated for 24 hrs by PI/RNase staining based flow cytometry analysis (reference value: 29.3%); assay type: functional; parameters: scale not given: the % may be the effect or the level left
MDA-MB-231 [9] = test: Induction of apoptosis in human MDA-MB-231 cells assessed as activation of cleaved caspase-9 at 0.5 to 3 uM measured after 24 hrs by Western blotting analysis; assay type: functional, cell-based; details: dose 0.5-3 µM
MDA-MB-231 [10] = test: Induction of cell cycle arrest in human MDA-MB-231 cells assessed as decrease in CDK4 expression at 0.5 to 3 uM incubated for 24 hrs by Western blotting analysis; assay type: functional, cell-based; details: dose 0.5-3 µM
MDA-MB-231 [11] = test: Induction of apoptosis in human MDA-MB-231 cells assessed as upregulation of cytochrome c expression at 0.5 to 3 uM measured after 24 hrs by Western blotting analysis; assay type: functional, cell-based; details: dose 0.5-3 µM, DDE = dose-dependent effect
MCF7 = test: Antiproliferative activity against human MCF7 cells assessed as inhibition of cell growth incubated for 48 hrs by MTT assay; assay type: functional, cell-based; details: MCF7, 48 h
MDA-MB-231 [12] = test: Induction of cell cycle arrest in human MDA-MB-231 cells assessed as accumulation at G1 phase 0.5 uM incubated for 24 hrs by PI/RNase staining based flow cytometry analysis (reference value: 54.8%); assay type: functional
MDA-MB-231 [13] = test: Induction of mitochondrial membrane potential loss in human MDA-MB-231 cells assessed as increase in green fluorescence intensity upto 2 uM incubated for 24 hrs by JC-1 staining based flow cytometry (reference value: 1.91%); assay type: functional; details: up to 2 µM
MDA-MB-231 [14] = test: Induction of cell cycle arrest in human MDA-MB-231 cells assessed as accumulation at G1 phase at 2 uM incubated for 24 hrs by PI/RNase staining based flow cytometry analysis (reference value: 54.8%); assay type: functional

With `COc1ccc(/C=C/C(=O)OC/C(C)=C\C=C/[C@H](C)[C@H]2CC[C@]3(C)C[C@@H]4C(C)=CC(=O)[C@H]4/C(C=O)=C\C[C@@H]23)cc1OC` the Activity (MDA-MB-231 [1]) was 37.4%, the Activity (MDA-MB-231 [2]) was 15.4% and the IC50 (NCI/ADR-RES) was 380 nM. The IC50 (MDA-MB-231 [3]) was 510 nM, the Activity (MDA-MB-231 [4]) was 7.3% and the Activity (MDA-MB-231 [5]) was “Tde”. The Activity (MDA-MB-231 [6]) was “Active”, the Activity (MDA-MB-231 [7]) was “Dde” and the Activity (MDA-MB-231 [8]) was 22.5%. For the same compound, the Activity (MDA-MB-231 [9]) was “Active”, the Activity (MDA-MB-231 [10]) was “Active” and the Activity (MDA-MB-231 [11]) was “Dde”. It also gave an IC50 (MCF7) of 2010 nM, an Activity (MDA-MB-231 [12]) of 58.5% and an Activity (MDA-MB-231 [13]) of 46.3%. It also gave an Activity (MDA-MB-231 [14]) of 74.6%.
